Earlier results, collected in US4377591A, “7-Oxo-1-azabicyclo[3.2.0]hept-2-ene-2-carboxylic acid derivatives, their use and preparation” (Sankyo Company, Limited, priority 1980, dated 1983).

System: bacteria
Settings: Japanese Patent Application Kokai No. 73191/76

Structure (SMILES): C[C@@H](O)[C@H]1C(=O)N2C(C(=O)O)=C(SCCN)C[C@H]12 [thienamycin, (5R,6S)-3-(2-aminoethylthio)-6-[1-(R)-hydroxyethyl]-7-oxo-1-azabicyclo[3.2.0]hept-2-ene-2-carboxylic acid]
- antibacterial activity (in words): extraordinarily potent antibacterial activity
